Assays:
[1] = system: a variety of test species; experiment: Post-emergence herbicidal activity (Example 8b, Table 3); type: in vivo; conditions: application post-emergence, rate 1000 g/ha, evaluated after 13 days, scale 0-5; for Herbicidal damage score, ABUTH: Abutilon theophrasti; for Herbicidal damage score, ALOMY: Alopecurus myosuroides; for Herbicidal damage score, AMARE: Amaranthus retroflexus; for Herbicidal damage score, ECHCG: Echinochloa crus-galli; for Herbicidal damage score, SETFA: Setaria faberi; for Herbicidal damage score, ZEAMX: Zea mays
Summary of the method: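 Visual herbicidal injury (0 = no damage, 5 = plant killed) recorded 13 days post-treatment. Treatment consisted of a single spray onto emerged seedlings at day 8; conditions before and after were 24/16 °C, 14 h light, 65% humidity.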

[2] = system: a variety of test species; experiment: Pre-emergence herbicidal activity (Example 8a, Table 2); type: in vivo; design: key: 0 = no damage to plant, 5 = total damage to plant; conditions: application pre-emergence, rate 1000 g/ha, evaluated after 13 days
Summary of the method: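 Seeds sown in standard soil in pots, held one day in glasshouse (24/16 °C day/night, 14 h light, 65% humidity), then sprayed with aqueous solution of compound formulated in acetone/water 50:50 with 0.5% Tween 20. Grown on under same conditions, watered twice daily; damage scored after 13 days (0 = none, 5 = total).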

| SMILES | Herbicidal damage score, ABUTH [1] | Herbicidal damage score, ALOMY [1] | Herbicidal damage score, AMARE [1] | Herbicidal damage score, ECHCG [1] | Herbicidal damage score, SETFA [1] | Herbicidal damage score, ZEAMX [1] | Pre-emergence herbicidal activity, damage score ABUTH [2] | Pre-emergence herbicidal activity, damage score ALOMY [2] | Pre-emergence herbicidal activity, damage score AMARE [2] | Pre-emergence herbicidal activity, damage score ECHCG [2] | Pre-emergence herbicidal activity, damage score SETFA [2] | Pre-emergence herbicidal activity, damage score ZEAMX [2] |
| --- | --- | --- | --- | --- | --- | --- | --- | --- | --- | --- | --- | --- |
| CC(C)=CCc1cc(N2C(=O)C(Br)=C(C)C2O)nn1C (stereo not drawn) [Compound J3] | 4 | 1 | 2 | 2 | 4 | 0 | 0 | 0 | 0 | 0 | 0 | 0 |
| CC1=C(Br)C(=O)N(c2cc(C(F)(F)F)n(C)n2)C1O (stereo not drawn) [Compound J4] | 5 | 5 | 5 | 5 | 5 | 5 | 5 | 4 | 5 | 4 | 5 | 4 |
| CC1=C(Br)C(=O)N(c2nn(C)c(C(C)(C)C)c2C#N)C1O (stereo not drawn) [Compound L1] | 5 | 5 | 5 | 5 | 5 | 3 | 5 | 4 | 5 | 5 | 5 | 3 |
| CCC1=C(Br)C(=O)N(c2nn(C)c(C(C)(C)C)c2C#N)C1O (stereo not drawn) [Compound L2] | 5 | 5 | 5 | 5 | 5 | 1 | 4 | 3 | 3 | 4 | 3 | 0 |
| CCCC1=C(Br)C(=O)N(c2nn(C)c(C(C)(C)C)c2C#N)C1OC(=O)CC (stereo not drawn) [Compound L3] | 5 | 4 | 4 | 5 | 5 | 2 | 4 | 3 | 3 | 4 | 3 | 2 |
| CCCC1=C(Br)C(=O)N(c2nn(C)c(C(C)(C)C)c2C#N)C1O (stereo not drawn) [Compound L4] | 5 | 5 | 5 | 5 | 5 | 2 | 4 | 4 | 3 | 5 | 4 | 2 |
| CC1=C(Br)C(=O)N(c2cc3n(n2)CCC3(C)C)C1O (stereo not drawn) [Compound M1] | 5 | 5 | 5 | 5 | 5 | 4 | 5 | 4 | 5 | 5 | 5 | 4 |
| CC1=C(Br)C(=O)N(c2cc3n(n2)CCCC3(C)C)C1O (stereo not drawn) [Compound M2] | 5 | 5 | 5 | 5 | 5 | 3 | 5 | 4 | 5 | 5 | 4 | 3 |
| CC1=C(Br)C(=O)N(c2cc3n(n2)CCSC3(C)C)C1O (stereo not drawn) [Compound M3] | 5 | 5 | 5 | 5 | 5 | 1 | 4 | 3 | 5 | 3 | 2 | 0 |
| CC1=C(Br)C(=O)N(c2cc3n(n2)CCS(=O)(=O)C3(C)C)C1O (stereo not drawn) [Compound M4] | 5 | 4 | 5 | 5 | 4 | 0 | 5 | 2 | 5 | 2 | 2 | 1 |
| CC1=C(Br)C(=O)N(c2nn(C)c3c2CCC3(C)C)C1O (stereo not drawn) [Compound N1] | 5 | 5 | 5 | 5 | 5 | 4 | 5 | 4 | 5 | 4 | 5 | 4 |
| COC1=C(Br)C(=O)N(c2nn(C)c(C(C)(C)C)c2Br)C1O (stereo not drawn) [Compound O1] | 0 | 0 | 0 | 0 | 0 | 0 | 0 | 0 | 0 | 0 | 0 | 0 |

— US9605004B2, “Chemical compounds” (SYNGENTA LIMITED, priority 2013, dated 2017)
